Measurements: patent US12662491B2 (Redona Therapeutics, Inc., priority 2020, dated 2026)

Biological target: T1, Zcchc11 enzyme (Homo sapiens, UniProt Q5TAX3)
T1 construct: made in house; host or cells: HEK293 cells (Zcchc11); E. coli Rosetta II (LIN28A)
T1 sequence (Q5TAX3 212-1420): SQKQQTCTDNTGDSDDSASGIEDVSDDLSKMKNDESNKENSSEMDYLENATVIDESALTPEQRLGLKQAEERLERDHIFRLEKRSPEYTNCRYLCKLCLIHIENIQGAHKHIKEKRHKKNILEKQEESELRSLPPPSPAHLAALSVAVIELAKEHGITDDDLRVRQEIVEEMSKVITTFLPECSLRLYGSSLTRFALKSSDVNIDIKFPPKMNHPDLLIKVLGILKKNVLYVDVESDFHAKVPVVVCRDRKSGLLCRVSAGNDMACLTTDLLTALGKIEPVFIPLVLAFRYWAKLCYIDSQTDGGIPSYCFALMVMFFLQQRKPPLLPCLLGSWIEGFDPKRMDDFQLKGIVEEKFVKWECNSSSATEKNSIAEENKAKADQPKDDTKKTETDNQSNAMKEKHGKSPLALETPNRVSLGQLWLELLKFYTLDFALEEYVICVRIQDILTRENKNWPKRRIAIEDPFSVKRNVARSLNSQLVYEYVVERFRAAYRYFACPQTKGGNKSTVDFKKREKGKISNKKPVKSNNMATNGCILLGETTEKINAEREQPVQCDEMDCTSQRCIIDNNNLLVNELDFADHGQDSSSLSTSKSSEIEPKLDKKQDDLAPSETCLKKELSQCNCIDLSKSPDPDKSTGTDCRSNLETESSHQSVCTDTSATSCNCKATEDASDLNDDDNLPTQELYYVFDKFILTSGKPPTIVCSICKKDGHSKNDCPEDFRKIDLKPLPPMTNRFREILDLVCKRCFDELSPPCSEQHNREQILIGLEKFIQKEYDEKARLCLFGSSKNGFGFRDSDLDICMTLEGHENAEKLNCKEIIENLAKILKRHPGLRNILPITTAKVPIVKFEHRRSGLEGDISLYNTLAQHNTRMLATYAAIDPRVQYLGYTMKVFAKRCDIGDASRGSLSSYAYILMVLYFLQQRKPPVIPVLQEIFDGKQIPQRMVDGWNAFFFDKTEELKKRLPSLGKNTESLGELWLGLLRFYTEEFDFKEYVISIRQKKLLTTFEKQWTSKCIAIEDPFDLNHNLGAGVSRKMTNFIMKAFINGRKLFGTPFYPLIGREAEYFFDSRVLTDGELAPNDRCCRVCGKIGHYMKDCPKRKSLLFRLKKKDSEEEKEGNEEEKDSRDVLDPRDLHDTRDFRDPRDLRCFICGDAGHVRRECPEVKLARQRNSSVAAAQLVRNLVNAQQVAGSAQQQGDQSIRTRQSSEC
Experiment: TUTase assay (Zcchc11 assay, Lin28a-dependent polyuridylation of pre-let-7)
Type: biochemical
Settings: LIN28A 10 nM, Zcchc11 0.2 nM, 5′-fluorescein pre-let-7 miRNA 2 nM, UTP 5 uM, room temperature, 30 minutes pre-incubation; read-out: Potency Lin28a-dep Z11 IC50
In short: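 Potency is measured as inhibition of LIN28A-driven U-tail addition to 2 nM pre-let-7 by 0.2 nM HEK293-derived Zcchc11 fragment with 5 uM UTP at room temperature. Tail growth appears as fluorescein quenching by an annealing rhodamine-A20 probe.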

IC50 [nM]	Compound
≤ 1000	O=C(O)c1cn(-c2cnccn2)c2cc(N3C[C@@H](F)C[C@H]3COc3ncccc3Cl)c(Cl)cc2c1=O [Example 77, 6-chloro-7-[(2S,4S)-2-{[(3-chloropyridin-2-yl)oxy]methyl}-4-fluoropyrrolidin-1-yl]-4-oxo-1-(pyrazin-2-yl)-1,4-dihydroquinoline-3-carboxylic acid]

Same assay, conditions: Lin28a-dependent Zcchc11 (Z11) TUTase activity; read-out: Potency Lin28a-dep Z11 IC50

IC50 [nM]	Compound
≤ 1000	CN(C)C1CN(c2ccc(-n3cc(C(=O)O)c(=O)c4cc(Cl)c(N5[C@@H](COc6nc(OC7CC7)ccc6Cl)C[C@H]6C[C@H]65)cc43)cn2)C1 [Compound 270, 6-chloro-7-((1R,3R,5R)-3-(((3-chloro-6-cycloprop-oxypyridin-2-yl)oxy)methyl)-2-azabicyclo [3.1.0]hexan-2-yl)-1-(6-(3-(dimethyl-amino)azetidin-1-yl)pyridin-3-yl)-4-oxo-1,4-dihydro-quinoline-3-carboxylic acid]
≤ 1000	CN(C)C1CN(c2cc(Cl)c(-n3cc(C(=O)O)c(=O)c4cc(Cl)c(N5CCC[C@@H]5COc5ncccc5Cl)cc43)cn2)C1 [Compound 253, 6-chloro-1-[4-chloro-6-[3-(dimethyl-amino)azetidin-1-yl]pyridin-3-yl]-7-[(2R)-2-[[(3-chloropyridin-2-yl)oxy]methyl]pyrrolidin-1-yl]-4-oxoquinoline-3-carboxylic acid]
1000 to 10000	O=C(O)c1cn(-c2cnccn2)c2cc(N3CCCCC3COc3ccccn3)c(Cl)cc2c1=O (stereo not shown) [Compound 211, 6-Chloro-4-oxo-1-(pyrazin-2-yl)-7-{2-[(pyridin-2-yloxy)methyl]piperidin-1-yl}quinoline-3-carboxylic acid]
> 50000	O=C(O)c1cn(C2CC2)c2cc(N3CCC[C@@H]3COc3ccccc3)c(F)cc2c1=O [Compound 96, (R)-1-cyclopropyl-6-fluoro-4-oxo-7-(2-(phenoxy-methyl)pyrrolidin-1-yl)-1,4-dihydro-quinoline-3-carboxylic acid]
≤ 1000	CC1CCN(c2cc3c(cc2Cl)c(=O)c(C(=O)O)cn3-c2ccc(N3CC(N(C)C)C3)nc2)C1COc1ncccc1Cl (stereo not shown) [Compound 306, 6-chloro-7-(2-(((3-chloropyridin-2-yl)oxy)methyl)-3-methyl-pyrrolidin-1-yl)-1-(6-(3-(dimethyl-amino)azetidin-1-yl)pyridin-3-yl)-4-oxo-1,4-dihydro-quinoline-3-carboxylic acid]
≤ 1000	CN(C)C1CN(c2ccc(-n3cc(C(=O)O)c(=O)c4cc(Cl)c(N5CCC[C@@]5(C)COc5ncccc5Cl)cc43)cn2)C1 (racemic) [Compound 314, rac-(R)-6-chloro-7-(2-(((3-chloropyridin-2-yl)oxy)methyl)-2-methyl-pyrrolidin-1-yl)-1-(6-(3-(dimethyl-amino)azetidin-1-yl)pyridin-3-yl)-4-oxo-1,4-dihydro-quinoline-3-carboxylic acid formic acid]

Same assay, conditions: Lin28a-dependent Zcchc11 (Z11) TUTase assay; read-out: Potency Lin28a-dep Z11 IC50

IC50 [nM]	Compound
1000 to 10000	O=C(O)c1cn(C2CCNC2)c2cc(N3CCC[C@@H]3COc3ncccc3Cl)c(Cl)cc2c1=O (stereo partly drawn) [Example 367, 6-chloro-7-[(2R)-2-{[(3-chloro-pyridin-2-yl)oxy)methyl}pyrrolidin-1-yl]-4-oxo-1-(pyrrolidin-3-yl)-1,4-dihydroquinoline-3-carboxylic acid]
≤ 1000	O=C(O)c1cn(-c2ccc(N3CCC3)nc2)c2cc(N3CCC[C@H]3COc3ncccc3Cl)c(Cl)cc2c1=O [Example 516, (S)-1-(6-(azetidin-1-yl)pyridin-3-yl)-6-chloro-7-(2-(((3-chloropyridin-2-yl)oxy)methyl)pyrrolidin-1-yl)-4-oxo-1,4-dihydroquinoline-3-carboxylic acid]
≤ 1000	CN(C)C1CN(c2cc(-n3cc(C(=O)O)c(=O)c4cc(Cl)c(N5CCC[C@@H]5COc5ncccc5Cl)nc43)ccn2)C1 [Example 544, (R)-6-chloro-7-(2-(((3-chloropyridin-2-yl)oxy)methyl)pyrrolidin-1-yl)-1-(2-(3-(dimethylamino)azetidin-1-yl)pyridin-4-yl)-4-oxo-1,4-dihydro-1,8-naphthyridine-3-carboxylic acid]
1000 to 10000	CN(C)C1CN(c2ccc(-n3cc(C(=O)O)c(=O)c4cc(Cl)c(N5CCC[C@@H]5CCc5ccccn5)cc43)cn2)C1 [Example 578, (R)-6-chloro-1-(6-(3-(dimethylamino)azetidin-1-yl)pyridin-3-yl)-4-oxo-7-(2-(2-(pyridin-2-yl)ethyl)pyrrolidin-1-yl)-1,4-dihydroquinoline-3-carboxylic acid]
≤ 1000	CC(C)(O)c1ccc(-n2cc(C(=O)O)c(=O)c3cc(C#N)c(N4CCC[C@@H]4COc4ncccc4Cl)cc32)cn1 [Example 575, (R)-7-(2-(((3-chloropyridin-2-yl)oxy)methyl)pyrrolidin-1-yl)-6-cyano-1-(6-(2-hydroxypropan-2-yl)pyridin-3-yl)-4-oxo-1,4-dihydroquinoline-3-carboxylic acid]
≤ 1000	O=C(O)c1cn(-c2ccc(C3(O)COC3)nc2)c2cc(N3CCC[C@@H]3COc3ncccc3Cl)c(Cl)cc2c1=O [Example 607, (R)-6-chloro-7-(2-(((3-chloropyridin-2-yl)oxy)methyl)pyrrolidin-1-yl)-1-(6-(3-hydroxy-oxetan-3-yl)pyridin-3-yl)-4-oxo-1,4-dihydroquinoline-3-carboxylic acid]
≤ 1000	COCCNc1ccc(-n2cc(C(=O)O)c(=O)c3cc(Cl)c(N4CCC[C@@H]4COc4ncccc4Cl)cc32)cn1 [Example 413, (R)-6-chloro-7-(2-(((3-chloropyridin-2-yl)oxy)methyl)pyrrolidin-1-yl)-1-(6-((2-methoxyethyl)amino)pyridin-3-yl)-4-oxo-1,4-dihydroquinoline-3-carboxylic acid]
≤ 1000	COc1ccc(Cl)c(OC[C@H]2CCCN2c2cc3c(cc2Cl)c(=O)c(C(=O)O)cn3-c2ccnc(N)c2)n1 [Example 644, (R)-1-(2-aminopyridin-4-yl)-6-chloro-7-(2-(((3-chloro-6-methoxypyridin-2-yl)oxy)methyl)pyrrolidin-1-yl)-4-oxo-1,4-dihydroquinoline-3-carboxylic acid]
≤ 1000	CN(C)C1CN(c2ccc(-n3cc(C(=O)O)c(=O)c4cc(Cl)c(N5CCC[C@@H]5COc5nc6c(ccn6C)cc5Cl)cc43)cn2)C1 [Example 645, (R)-6-chloro-7-(2-(((5-chloro-1-methyl-1H-pyrrolo[2,3-b]pyridin-6-yl)oxy)methyl)pyrrolidin-1-yl)-1-(6-(3-(dimethylamino)azetidin-1-yl)pyridin-3-yl)-4-oxo-1,4-dihydroquinoline-3-carboxylic acid]
≤ 1000	O=C(O)c1cn(-c2ccc(Cl)cc2)c2cc(N3CCC[C@@H]3COc3ccccn3)c(F)cc2c1=O [Example 377, (R)-1-(4-chlorophenyl)-6-fluoro-4-oxo-7-(2-((pyridin-2-yloxy)methyl)pyrrolidin-1-yl)-1,4-dihydroquinoline-3-carboxylic acid]
≤ 1000	CN(C)C1CN(c2ccc(-n3cc(C(=O)O)c(=O)c4cc(F)c(N5CC[C@@H](F)[C@@H]5COc5ncccc5Cl)cc43)cn2)C1 [Example 671, 7-((2S,3R)-2-(((3-chloropyridin-2-yl)oxy)methyl)-3-fluoropyrrolidin-1-yl)-1-(6-(3-(dimethylamino)azetidin-1-yl)pyridin-3-yl)-6-fluoro-4-oxo-1,4-dihydroquinoline-3-carboxylic acid]
≤ 1000	CN1CCn2nc(-n3cc(C(=O)O)c(=O)c4cc(Cl)c(N5CCC[C@@H]5COc5ncccc5Cl)cc43)cc2C1 [Example 508, (R)-6-chloro-7-(2-(((3-chloropyridin-2-yl)oxy)methyl)pyrrolidin-1-yl)-1-(5-methyl-4,5,6,7-tetrahydropyrazolo [1,5-a]pyrazin-2-yl)-4-oxo-1,4-dihydroquinoline-3-carboxylic acid]
